Measured values from patent publication US20210393503A1, “ORGANIC COMPOUNDS” (GIVAUDAN SA, priority 2017, published 2021).
Like-named read-outs stand apart in the source and are kept apart here.

Assays:
[1] = tested on: Reconstituted Human Oral Epithelium (RHO) colonized with S. Aureus; assay: Biofilm formation by TEER on colonized RHO; type: cell-based
Protocol: (§1) Immediately after the arrival in the laboratory, the RHO was removed from the agarose nutrient solution under a sterile airflow cabin. The inserts were rapidly placed in a 6-well plate previously filled with 1 ml of the maintenance medium containing antibiotics at room temperature. The wells were placed in an incubator at 37° C., 5% CO2 and saturated humidity overnight.
(§2) The protocol was performed on duplicate tissues for bacterial burden and on single tissue for further morphological analysis (SEM, H&E).
(§3) S. aureus MRSA ATCC 33591 was thawed and cultured in nutrient broth at 37° C., under agitation.
(§4) 30 μL of intermediate molecular weight hyaluronic acid solution (0.2% w/v) or of chlorhexidine (CHL) 0.2% (positive control), respectively, were topically applied to RHO samples, and incubated for 24 h. Then, the product residual volume was removed by a micropipette from the epithelium surface.
The RHO samples were then colonized with S. Aureus bacterial suspensions (O.D. 0.1 about 10^6 UFC/tissue), which was applied topically for 4 h. After 4 h, the remaining S. aureus solution was removed and RHO tissue samples were incubated for 16 h at 37° C., 5% CO2. […]
TEER was measured as described hereafter: 0.5 ml of physiological saline solution was directly applied on the tissue placed in a 6-well plate containing 5 ml of saline solution as well. […]

[2] = tested on: S. aureus MRSA ATCC 33591; assay: Biofilm formation by bacterial count on colonized RHO; type: cell-based, Staphylococcus aureus
Protocol: as §1, §2, §3, §4
(§5) The RHO samples were then colonized with S. Aureus bacterial suspensions (O.D. 0.1 about 10^6 UFC/tissue), which was applied topically for 4 h. After 4 h, the remaining S. aureus solution was removed and RHO tissue samples were incubated for 16 h at 37° C., 5% CO2.
The samples for this assessment were prepared according to the procedure of example 5.
In order to perform the bacterial count on apical, basolateral and homogenate compartments, the following procedure was used: • For the basolateral compartment: 1 ml of culture medium from each well was sampled. • For the apical compartment, the samples from the TEER measurement according to example 6 were used: Each sample contained 500 μl of physiological saline solution. These samples were moved to a new 6-well plate that had been previously filled with 2 ml/well of saline solution and put in a sonicator bath for 7 minutes at 40 kHz. After sonication, 500 μl of saline solution were sampled for the apical compartment and the RHO tissues were rinsed twice with 200 μl of saline solution. The total amount of solution (900 μl) was then pooled together to obtain the harvested apical compartment. • For the homogenate compartment: a sterile scalpel blade has been used to harvest tissues from the insert and to place them in an Eppendorf tube containing 500 μL of 0.5% Triton X-100 solution prepared in sterile distilled water for at least 10 minutes.
Bacterial counts of the three compartments were performed on Nutrient Agar plates, plating the appropriate 10-fold dilutions (from the not diluted to 10-7) of each compartment suspension (one 10 μl drop for each dilution). After 1 day of incubation at 37° C., the colonies were numbered visually.

[3] = tested on: Reconstituted Human Oral Epithelium (RHO); assay: Re-epithelization after injury by scanning electronic microscopy; type: cell-based; settings: T24h after injury; for film forming on the tissue surface: high molecular weight 0.2%, FIG. 6; for tissue repair / wound recovery seen by SEM: low 0.5%, intermediate 0.2%, high 0.2%, magnification 10000x, FIGS. 4-6
Protocol: Experiments were performed on Reconstituted Human Oral Epithelium (RHO). Immediately after the arrival in the laboratory, the RHO was removed from the agarose nutrient solution under a sterile airflow cabin. The inserts were rapidly placed in a 6-well plate previously filled with 1 ml of the maintenance medium at room temperature. The wells were placed in an incubator at 37° C., 5% CO2 and saturated humidity overnight. On the next day, an injury was performed with a glass capillary. The RHO samples were then treated with a solution containing hyaluronic acid having low (20-50 kDa), intermediate (100-300 kDa) or high (1,000-1,400 kDa) molecular weight. Untreated RHO was used as a control without treatment. The RHO samples for this assessment were prepared according to the procedure of example 1. 24 h after treatment with hyaluronic acid, the samples for scanning electronic microscopy (SEM) were immediately fixed by immersion in 2.5% glutaraldehyde in phosphate buffered saline (PBS) for 24 h, washing in 0.1 M sodium cacodylate buffer, pH 7.4, and then carried out in 1% osmium tetraoxide (OsO4) in the same buffer (2 h at room temperature). The samples were dehydrated in ascending grades of ethanol at room temperature and Hexamethyldisilazane overnight. The samples were placed on pins with carbon tabs, coated with a layer of gold using a Polaron Equipment limited SEM coating unit […], and then transferred to a SEM Zeiss Sigma Electron Microscope for viewing and photography. Magnification of 10000× was performed.

[4] = tested on: Reconstituted Human Oral Epithelium (RHO); assay: Re-epithelization after injury by TEER (trans epithelial electrical resistance); type: cell-based; settings: 24 h after treatment; RHO injured with glass capillary; vs control not treated after injury; FIG. 1
Protocol: Experiments were performed on Reconstituted Human Oral Epithelium (RHO).
as §1, with “medium” for “medium containing antibiotics”
On the next day, an injury was performed with a glass capillary.
The RHO samples were then treated with a solution containing hyaluronic acid having low (20-50 kDa), intermediate (100-300 kDa) or high (1,000-1,400 kDa) molecular weight. Untreated RHO was used as a control without treatment.
(§6) The RHO samples for this assessment were prepared according to the procedure of example 1.
24 h after the treatment with hyaluronic acid, the trans epithelial electric resistance (TEER) was measured as follows:
0.5 ml of physiological saline solution was directly applied on the tissue placed in a 6-well plate containing 5 ml of saline solution as well. The two electrodes of a Millicell-ERS Voltohmmeter (range 0-20 kΩ) were placed were placed in two compartments on either side of the tissue, such that the electric flux passed through the tissue. The result of the measurement directly appeared on the display. […]

Integrin beta 1 (ITGB1) = assay: Re-epithelization after injury by immunohistochemistry on Integrin B1; type: cell-based, human; settings: injured RHO, vs injured control, FIG. 7
Protocol: as §6
At the end of the exposures (at least overnight), the tissue samples were fixed in buffered 10% formalin. Samples were included in paraffin blocks and sections of 5 μm were prepared. These slides were stained with Haematoxilin and Eosin.
The used technique allows for visualization of a specific protein or antigen in cells or tissue sections by binding a specific antibody chemically conjugated with a fluorescent dye. The indirect immunofluorescence staining is a procedure, in which a secondary antibody labelled with a fluorochrome is used to recognize a primary antibody. Immunofluorescence staining can be performed on cells fixed on slides and tissue sections. Immunofluorescence stained samples are examined under a fluorescence microscope or confocal microscope.
INTEGRIN (ITGB1): Mouse monoclonal antibody anti-Integrin beta 1 (Abcam, ab3167) diluted at 2 μg/ml for a 2 h incubation at room temperature in 1% BSA in PBS; and the secondary antibody in Alexa Fluor 488 goat anti-mouse (Invitrogen, A10680). The nuclei were stained with Dapi.
The slices were examined under a Leica DM 2500 FLUO microscope and analyzed by Leica LAS software.

[5] = tested on: S. aureus MRSA ATCC 33591; assay: Biofilm visualization by scanning electronic microscopy; type: cell-based, Staphylococcus aureus; settings: 100-300 kDa, 0.2% w/v, colonization with S. Aureus, after 4 h
Protocol: as §1, §2, §3, §4, §5
The samples for this experiment were prepared according to the procedure of example 5.
After treatment, samples for SEM were immediately fixed by immersion in 2.5% gluteraldehyde in PBS. […]

ZO-1 = assay: Re-epithelization after injury by immunohistochemistry on ZO-1; type: cell-based, human; settings: injured RHO, vs injured control; FIG. 7
Protocol: The RHO samples for this assessment were prepared according to the procedure of example 1. At the end of the exposures (at least overnight), the tissue samples were fixed in buffered 10% formalin. Samples were included in paraffin blocks and sections of 5 μm were prepared. These slides were stained with Haematoxilin and Eosin. The used technique allows for visualization of a specific protein or antigen in cells or tissue sections by binding a specific antibody chemically conjugated with a fluorescent dye. The indirect immunofluorescence staining is a procedure, in which a secondary antibody labelled with a fluorochrome is used to recognize a primary antibody. Immunofluorescence staining can be performed on cells fixed on slides and tissue sections. Immunofluorescence stained samples are examined under a fluorescence microscope or confocal microscope. […] ZO-1: Rabbit polyclonal antibody anti-ZO-1 (Invitrogen, 61-7300), diluted at 5 μg/ml for an overnight incubation at 4° C. in 1% bovine serum albumin (BSA) in PBS; and the secondary antibody in Alexa Fluor 555 donkey anti-rabbit (Invitrogen, A31572). The nuclei were stained with (4′,6-diamidino-2-phenylindole) (Dapi). The slices were examined under a Leica DM 2500 FLUO microscope and analyzed by Leica LAS software.

Compound: [H]/N=C(\N/C(=N/[H])NCCCCCCNC(=N)NC(=N)Nc1ccc(Cl)cc1)Nc1ccc(Cl)cc1 [CHL, chlorhexidine, reference compound]
- TEER (barrier function) of colonized RHO ([1]; 0.2% applied 24 h before colonization with S. Aureus for 4 h, then 16 h incubation, FIG. 8): TEER decreased
- bacterial count, result in words ([2]; 0.2% applied 24 h before colonization with S. Aureus, FIGS. 9 and 10): strong bactericidal property

Compound: hyaluronic acid [high molecular weight hyaluronic acid]
- film forming on the tissue surface [3]: film forming was observed
- film forming on the tissue surface ([3]; listed as hyaluronic acid of high molecular weight): forming a film on the skin surface
- tissue repair / wound recovery seen by SEM [3]: significantly less advanced

Compound: hyaluronic acid [intermediate molecular weight hyaluronic acid]
- TEER (barrier function) after injury [4]: improved the barrier function after an injury
- tissue repair / wound recovery seen by SEM [3]: active process of tissue repair
- Integrin beta 1 expression (immunofluorescence) (Integrin beta 1 (ITGB1); listed as hyaluronic acid of intermediate molecular weight): over-expression of integrin beta 1 exclusively
- TEER (barrier function) of colonized RHO [1]: did not affect TEER
- decrease of the bacterial count, apical compartment ([2]; 0.2% w/v applied 24 h before colonization with S. Aureus, FIG. 9): about 50%
- decrease of the bacterial count, homogenate compartment ([2]; 0.2% w/v applied 24 h before colonization with S. Aureus, FIG. 10): about 50%
- total bacterial count (bacterial proliferation) ([2]; summary of examples 5-9): −50%
- polysaccharide matrix (biofilm formation) by SEM ([5]; FIG. 13): No polysaccharide matrix is visible
- colonies in cluster by SEM ([5]; FIG. 13 vs FIG. 12): less colonies are in cluster

Compound: hyaluronic acid [low molecular weight hyaluronic acid]
- TEER (barrier function) after injury [4]: improved the barrier function after an injury
- tissue repair / wound recovery seen by SEM [3]: led to a recovery of the wound
- ZO-1 expression (immunofluorescence) (ZO-1): induced an over-expression
- Integrin beta 1 expression (immunofluorescence) (Integrin beta 1 (ITGB1)): induced an over-expression
